PMC7181277, “Synthesis and Biological Evaluation of New Antitubulin Agents Containing 2-(3′,4′,5′-trimethoxyanilino)-3,6-disubstituted-4,5,6,7-tetrahydrothieno[2,3-c]pyridine Scaffold” (Molecules, 2020)

How the values were obtained:
[1] = system: tubulin (colchicine site); assay: Inhibition of [3H]colchicine binding to tubulin; design: species or system Bovine; settings: tubulin 1 μM, colchicine 5 μM, compound 5 μM
Description: (§1) Bovine brain tubulin was purified as described previously. To evaluate the effect of the compounds on tubulin assembly in vitro [59], varying concentrations were preincubated with 10 μM tubulin in 0.8 M glutamate buffer at 30 °C and then cooled to 0 °C. After addition of GTP, the mixtures were transferred to 0 °C cuvettes in a recording spectrophotometer and warmed to 30 °C, and the assembly of tubulin was observed turbidimetrically. […] The ability of the test compounds to inhibit colchicine binding to tubulin was measured as described earlier, except that the reaction mixtures contained 1 μM tubulin, 5 μM of [^3H]colchicine, and test compounds 3a or 3b.

Bovine brain tubulin = assay: Inhibition of tubulin polymerization (turbidimetric assembly); format: biochemical; settings: tubulin at 10 μM, 20 min incubation; read-out: Tubulin assembly IC50 ± SD
Description: as §1

[2] = system: murine leukemia (L1210) cells; assay: In vitro antiproliferative assay, L1210 cells; format: cell-based; settings: Mus musculus
Description: In Table 1 we report the in vitro antiproliferative activity of 2-(3′,4′,5′-trimethoxyanilino)-4,5,6,7-tetrahydrothieno[2,3-c]pyridine derivatives 3a–3j and the related 4,5,6,7-tetrahydrobenzo[b]thiophenes 3k–3p against a panel of three cell lines, which were derived from different cancer types, including murine leukemia (L1210), human T-lymphoblastoid leukemia (CEM), and human cervix carcinoma (HeLa) cells.
(§2) Murine leukemia L1210, human T-lymphocyte leukemia CEM, human cervix carcinoma (HeLa), and human chronic myelogenous leukemia K562 cells (3–5 × 10^4 cells) and a serial (5-fold) dilution of the test compounds were added to a 96-well microtiter plate. The cells were incubated for 72 h at 37 °C in a humidified 5% CO2 atmosphere. At the end of the incubation period, the cells were counted in a Coulter Counter (Coulter Electronics Ltd., Harpenden Herts, United Kingdom). The IC50 (50% inhibitory concentration) was defined as the concentration of compound that inhibited cell proliferation by 50%. The IC50 values represent the average (± standard deviation) of three independent experiments. Human peripheral blood mononuclear cells (PBMC) were obtained from healthy donors by centrifugation with Ficoll-Paque Plus (GE Healthcare Bio-Sciences AB, Uppsala).

[3] = system: human cervix carcinoma (HeLa) cells; assay: In vitro antiproliferative assay, HeLa cells; format: cell-based; settings: human cervix carcinoma HeLa, 72 h, cell count; mean ± SE
Description: as §2, with “The IC50 (50% inhibitory concentration) was defined as the concentration of compound that inhibited cell proliferation by 50%.” left out

[4] = system: human T-lymphoblastoid leukemia (CEM) cells; assay: In vitro antiproliferative assay, CEM cells; format: cell-based; settings: CCRF-CEM; human T-lymphocyte CEM, 72 h, cell count; mean ± SE
Description: as §2, with “The IC50 (50% inhibitory concentration) was defined as the concentration of compound that inhibited cell proliferation by 50%.” left out

[5] = murine leukemia L1210, 72 h, cell count, mean ± SE

| SMILES | Colchicine binding % ± SD (inhibition of [3H]colchicine binding) [1] [%] | IC50 (Bovine brain tubulin) [µM] | IC50 ([2]; L1210, 72 h) [µM] | IC50 [3] [µM] | IC50 [2, 5] [µM] | IC50 [4] [µM] | melting point [°C] |
| --- | --- | --- | --- | --- | --- | --- | --- |
| COc1ccc(/C=C\c2cc(OC)c(OC)c(OC)c2)cc1O [CA-4, combretastatin A-4, reference compound] | 98 ± 0.9 | […] | 0.0028 ± 0.0011 | – | – | – | – |
| CCOC(=O)N1CCc2c(sc(NC(=O)c3cccs3)c2C#N)C1 [Compound 2b, reference compound] | – | – | – | 41 ± 27 | 6 ± 0.3 | 3.7 ± 1.2 | – |
| COC(=O)c1c(Nc2cc(OC)c(OC)c(OC)c2)sc2c1CCN(C(=O)OC)C2 [Compound 3c, Dimethyl 2-((3,4,5-trimethoxyphenyl)amino)-4,5-dihydrothieno[2,3-c]pyridine-3,6(7H)-dicarboxylate] | – | – | – | 23 ± 10 | 17 ± 5 | 16 ± 4 | 140 to 141 |
| CCOC(=O)N1CCc2c(sc(Nc3cc(OC)c(OC)c(OC)c3)c2C(=O)OC)C1 [Compound 3d, 6-Ethyl 3-methyl 2-((3,4,5-trimethoxyphenyl)amino)-4,5-dihydrothieno[2,3-c]pyridine-3,6(7H)-dicarboxylate] | – | – | – | 16 ± 3 | 15 ± 2 | 12 ± 4 | 76 to 78 |
| COC(=O)c1c(Nc2cc(OC)c(OC)c(OC)c2)sc2c1CCN(C(C)=O)C2 [Compound 3e, Methyl 6-acetyl-2-((3,4,5-trimethoxyphenyl)amino)-4,5,6,7-tetrahydrothieno[2,3-c]pyridine-3-carboxylate] | – | – | – | 48 ± 17 | 26 ± 2 | 43 ± 12 | 90 to 91 |
| CCOC(=O)c1c(Nc2cc(OC)c(OC)c(OC)c2)sc2c1CCN(C(=O)OC)C2 [Compound 3f, 3-Ethyl 6-methyl 2-((3,4,5-trimethoxyphenyl)amino)-4,5-dihydrothieno[2,3-c]pyridine-3,6(7H)-dicarboxylate] | – | – | – | 67 ± 20 | 22 ± 4 | 22 ± 8 | 128 to 130 |
| CCOC(=O)c1c(Nc2cc(OC)c(OC)c(OC)c2)sc2c1CCN(C(=O)OCC)C2 [Compound 3g, Diethyl 2-((3,4,5-trimethoxyphenyl)amino)-4,5-dihydrothieno[2,3-c]pyridine-3,6(7H)-dicarboxylate] | – | – | – | 19 ± 4 | 19 | 19 ± 1 | 67 to 69 |
| CCOC(=O)c1c(Nc2cc(OC)c(OC)c(OC)c2)sc2c1CCN(C(C)=O)C2 [Compound 3h, Ethyl 6-acetyl-2-((3,4,5-trimethoxyphenyl)amino)-4,5,6,7-tetrahydrothieno[2,3-c]pyridine-3-carboxylate] | – | – | – | 24 ± 3 | 25 ± 3 | 34 ± 9 | 93 to 95 |
| COC(=O)N1CCc2c(sc(Nc3cc(OC)c(OC)c(OC)c3)c2C(=O)OC(C)(C)C)C1 [Compound 3i, 3-tert-butyl 6-methyl 2-((3,4,5-trimethoxyphenyl)amino)-4,5-dihydrothieno[2,3-c]pyridine-3,6(7H)-dicarboxylate] | – | – | – | 14 ± 1 | 18 ± 3 | 20 ± 2 | 50 to 52 |
| CCOC(=O)N1CCc2c(sc(Nc3cc(OC)c(OC)c(OC)c3)c2C(=O)OC(C)(C)C)C1 [Compound 3j, 3-tert-butyl 6-ethyl 2-((3,4,5-trimethoxyphenyl)amino)-4,5-dihydrothieno[2,3-c]pyridine-3,6(7H)-dicarboxylate] | – | – | – | 20 ± 4 | 19 ± 3 | 19 ± 2 | 60 to 62 |
| COc1cc(Nc2sc3c(c2C#N)CCC(C)C3)cc(OC)c1OC (centres unmarked) [Compound 3k, 6. -Methyl-2-((3,4,5-trimethoxyphenyl)amino)-4,5,6,7-tetrahydrobenzo[b]thiophene-3-carbonitrile] | – | – | – | 202 ± 25 | > 250 | > 250 | 112 to 114 |
| COc1cc(Nc2sc3c(c2C#N)CCC(c2ccccc2)C3)cc(OC)c1OC (centres unmarked) [Compound 3l, 6. -Phenyl-2-((3,4,5-trimethoxyphenyl)amino)-4,5,6,7-tetrahydrobenzo[b]thiophene-3-carbonitrile] | – | – | – | 124 ± 8 | 92 ± 29 | 58 ± 53 | 169 to 170 |
| COC(=O)c1c(Nc2cc(OC)c(OC)c(OC)c2)sc2c1CCC(C)C2 (centres unmarked) [Compound 3m, Methyl 6-methyl-2-((3,4,5-trimethoxyphenyl)amino)-4,5,6,7-tetrahydrobenzo[b]thiophene-3-carboxylate] | – | – | – | 11 ± 6 | 82 ± 13 | 45 ± 17 | 127 to 129 |
| COC(=O)c1c(Nc2cc(OC)c(OC)c(OC)c2)sc2c1CCC(c1ccccc1)C2 (centres unmarked) [Compound 3n, Methyl 6-phenyl-2-((3,4,5-trimethoxyphenyl)amino)-4,5,6,7-tetrahydrobenzo[b]thiophene-3-carboxylate] | – | – | – | 48 ± 6 | 101 ± 9 | 102 ± 50 | 147 to 148 |
| CCOC(=O)c1c(Nc2cc(OC)c(OC)c(OC)c2)sc2c1CCC(C)C2 (centres unmarked) [Compound 3o, Ethyl 6-methyl-2-((3,4,5-trimethoxyphenyl)amino)-4,5,6,7-tetrahydrobenzo[b]thiophene-3-carboxylate] | – | – | – | 66 ± 6 | 86 ± 41 | 78 ± 33 | 90 to 92 |
| CCOC(=O)c1c(Nc2cc(OC)c(OC)c(OC)c2)sc2c1CCC(c1ccccc1)C2 (centres unmarked) [Compound 3p, Ethyl 6-phenyl-2-((3,4,5-trimethoxyphenyl)amino)-4,5,6,7-tetrahydrobenzo[b]thiophene-3-carboxylate] | – | – | – | 169 ± 18 | 112 ± 1 | 88 ± 12 | 98 to 100 |
